Reference: US9346798B2, “Dihydrobenzoxazine and tetrahydroquinoxaline sodium channel inhibitors” (AMGEN INC., priority 2012, dated 2016)
pIC50: −log10 of the molar value.

Key:
Assay type in all cases: cell-based
Nav 1.7 [1] = biological target: T1, Nav 1.7 (Homo sapiens (Human), UniProt Q15858); test: Nav 1.7 in vitro assay, IonWorks Quattro (IWQ) population patch-clamp; conditions: HEK 293 cells stably transfected with Nav 1.7; 26th pulse to -20 mV
Nav 1.7 [2] = biological target: T1, Nav 1.7; test: Nav 1.7 in vitro PX assay, PatchXpress whole cell voltage clamp; conditions: HEK 293 cells stably transfected with human Nav1.7; for pIC50: partially inactivated state (20 to 50% inactivation)
Procedure, shortened: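 Partially inactivated channels (20–50% inactivation at holding potential) were probed on automated patch clamp in stably transfected HEK293 cells, stepping to −10 mV for 20 msec every 10 s (0.1 Hz).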

Nav 1.5 = Nav 1.5 (Homo sapiens (Human), UniProt Q14524); test: Nav 1.5 in vitro assay, IonWorks Quattro (IWQ) population patch-clamp; conditions: HEK 293 cells stably transfected with Nav 1.5; 26th pulse to -20 mV
Sequence of Nav 1.5 (Q14524 whole entry): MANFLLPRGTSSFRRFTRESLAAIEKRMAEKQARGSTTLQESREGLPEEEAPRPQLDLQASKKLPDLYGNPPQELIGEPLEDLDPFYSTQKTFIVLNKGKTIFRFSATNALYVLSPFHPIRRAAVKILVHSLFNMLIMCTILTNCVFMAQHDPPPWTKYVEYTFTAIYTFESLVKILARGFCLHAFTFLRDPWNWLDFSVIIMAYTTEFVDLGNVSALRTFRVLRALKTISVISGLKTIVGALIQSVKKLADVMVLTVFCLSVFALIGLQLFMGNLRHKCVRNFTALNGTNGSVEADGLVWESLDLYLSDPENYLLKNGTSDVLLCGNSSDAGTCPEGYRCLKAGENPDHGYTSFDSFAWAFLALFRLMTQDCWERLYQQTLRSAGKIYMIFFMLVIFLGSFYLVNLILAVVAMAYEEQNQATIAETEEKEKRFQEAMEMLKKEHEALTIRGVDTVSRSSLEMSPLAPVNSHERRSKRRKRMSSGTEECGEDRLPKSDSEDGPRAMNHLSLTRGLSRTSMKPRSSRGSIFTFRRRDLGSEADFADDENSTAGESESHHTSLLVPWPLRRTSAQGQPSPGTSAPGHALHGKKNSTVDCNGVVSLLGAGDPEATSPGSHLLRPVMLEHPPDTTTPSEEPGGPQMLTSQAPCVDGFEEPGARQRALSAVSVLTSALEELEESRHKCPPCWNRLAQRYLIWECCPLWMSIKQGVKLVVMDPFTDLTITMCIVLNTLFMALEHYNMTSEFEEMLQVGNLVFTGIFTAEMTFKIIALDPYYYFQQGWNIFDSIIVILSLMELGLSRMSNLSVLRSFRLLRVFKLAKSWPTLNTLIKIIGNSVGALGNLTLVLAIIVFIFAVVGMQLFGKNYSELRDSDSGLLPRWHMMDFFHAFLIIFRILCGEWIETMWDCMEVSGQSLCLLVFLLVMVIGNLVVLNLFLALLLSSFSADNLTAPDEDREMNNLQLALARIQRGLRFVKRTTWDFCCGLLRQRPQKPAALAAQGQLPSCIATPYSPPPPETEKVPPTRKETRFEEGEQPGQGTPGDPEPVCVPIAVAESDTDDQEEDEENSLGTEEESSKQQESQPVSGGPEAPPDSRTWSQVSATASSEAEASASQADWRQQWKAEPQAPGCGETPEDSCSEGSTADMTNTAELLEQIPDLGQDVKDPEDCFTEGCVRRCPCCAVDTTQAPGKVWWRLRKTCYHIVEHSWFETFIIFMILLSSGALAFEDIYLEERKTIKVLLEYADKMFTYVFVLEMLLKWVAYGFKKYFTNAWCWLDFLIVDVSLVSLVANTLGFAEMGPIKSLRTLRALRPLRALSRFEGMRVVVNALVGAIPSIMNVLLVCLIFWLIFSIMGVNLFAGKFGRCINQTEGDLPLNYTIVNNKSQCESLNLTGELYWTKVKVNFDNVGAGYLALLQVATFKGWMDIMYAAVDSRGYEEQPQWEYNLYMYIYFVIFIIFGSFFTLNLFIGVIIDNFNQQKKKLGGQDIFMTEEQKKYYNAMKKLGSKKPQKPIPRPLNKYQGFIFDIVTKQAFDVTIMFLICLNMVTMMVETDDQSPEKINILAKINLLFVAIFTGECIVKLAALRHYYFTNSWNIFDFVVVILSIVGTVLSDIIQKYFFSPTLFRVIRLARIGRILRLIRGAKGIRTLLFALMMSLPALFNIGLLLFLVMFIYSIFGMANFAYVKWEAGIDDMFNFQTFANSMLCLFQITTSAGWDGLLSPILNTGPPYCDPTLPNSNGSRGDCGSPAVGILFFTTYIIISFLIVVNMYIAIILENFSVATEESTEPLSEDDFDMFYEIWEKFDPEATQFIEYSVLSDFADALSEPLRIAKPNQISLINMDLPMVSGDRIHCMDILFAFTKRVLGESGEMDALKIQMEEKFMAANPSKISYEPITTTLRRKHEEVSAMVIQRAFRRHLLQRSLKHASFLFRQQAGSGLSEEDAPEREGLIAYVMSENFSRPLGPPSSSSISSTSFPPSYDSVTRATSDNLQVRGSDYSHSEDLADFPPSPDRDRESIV

T1 sequence (Q15858 whole entry): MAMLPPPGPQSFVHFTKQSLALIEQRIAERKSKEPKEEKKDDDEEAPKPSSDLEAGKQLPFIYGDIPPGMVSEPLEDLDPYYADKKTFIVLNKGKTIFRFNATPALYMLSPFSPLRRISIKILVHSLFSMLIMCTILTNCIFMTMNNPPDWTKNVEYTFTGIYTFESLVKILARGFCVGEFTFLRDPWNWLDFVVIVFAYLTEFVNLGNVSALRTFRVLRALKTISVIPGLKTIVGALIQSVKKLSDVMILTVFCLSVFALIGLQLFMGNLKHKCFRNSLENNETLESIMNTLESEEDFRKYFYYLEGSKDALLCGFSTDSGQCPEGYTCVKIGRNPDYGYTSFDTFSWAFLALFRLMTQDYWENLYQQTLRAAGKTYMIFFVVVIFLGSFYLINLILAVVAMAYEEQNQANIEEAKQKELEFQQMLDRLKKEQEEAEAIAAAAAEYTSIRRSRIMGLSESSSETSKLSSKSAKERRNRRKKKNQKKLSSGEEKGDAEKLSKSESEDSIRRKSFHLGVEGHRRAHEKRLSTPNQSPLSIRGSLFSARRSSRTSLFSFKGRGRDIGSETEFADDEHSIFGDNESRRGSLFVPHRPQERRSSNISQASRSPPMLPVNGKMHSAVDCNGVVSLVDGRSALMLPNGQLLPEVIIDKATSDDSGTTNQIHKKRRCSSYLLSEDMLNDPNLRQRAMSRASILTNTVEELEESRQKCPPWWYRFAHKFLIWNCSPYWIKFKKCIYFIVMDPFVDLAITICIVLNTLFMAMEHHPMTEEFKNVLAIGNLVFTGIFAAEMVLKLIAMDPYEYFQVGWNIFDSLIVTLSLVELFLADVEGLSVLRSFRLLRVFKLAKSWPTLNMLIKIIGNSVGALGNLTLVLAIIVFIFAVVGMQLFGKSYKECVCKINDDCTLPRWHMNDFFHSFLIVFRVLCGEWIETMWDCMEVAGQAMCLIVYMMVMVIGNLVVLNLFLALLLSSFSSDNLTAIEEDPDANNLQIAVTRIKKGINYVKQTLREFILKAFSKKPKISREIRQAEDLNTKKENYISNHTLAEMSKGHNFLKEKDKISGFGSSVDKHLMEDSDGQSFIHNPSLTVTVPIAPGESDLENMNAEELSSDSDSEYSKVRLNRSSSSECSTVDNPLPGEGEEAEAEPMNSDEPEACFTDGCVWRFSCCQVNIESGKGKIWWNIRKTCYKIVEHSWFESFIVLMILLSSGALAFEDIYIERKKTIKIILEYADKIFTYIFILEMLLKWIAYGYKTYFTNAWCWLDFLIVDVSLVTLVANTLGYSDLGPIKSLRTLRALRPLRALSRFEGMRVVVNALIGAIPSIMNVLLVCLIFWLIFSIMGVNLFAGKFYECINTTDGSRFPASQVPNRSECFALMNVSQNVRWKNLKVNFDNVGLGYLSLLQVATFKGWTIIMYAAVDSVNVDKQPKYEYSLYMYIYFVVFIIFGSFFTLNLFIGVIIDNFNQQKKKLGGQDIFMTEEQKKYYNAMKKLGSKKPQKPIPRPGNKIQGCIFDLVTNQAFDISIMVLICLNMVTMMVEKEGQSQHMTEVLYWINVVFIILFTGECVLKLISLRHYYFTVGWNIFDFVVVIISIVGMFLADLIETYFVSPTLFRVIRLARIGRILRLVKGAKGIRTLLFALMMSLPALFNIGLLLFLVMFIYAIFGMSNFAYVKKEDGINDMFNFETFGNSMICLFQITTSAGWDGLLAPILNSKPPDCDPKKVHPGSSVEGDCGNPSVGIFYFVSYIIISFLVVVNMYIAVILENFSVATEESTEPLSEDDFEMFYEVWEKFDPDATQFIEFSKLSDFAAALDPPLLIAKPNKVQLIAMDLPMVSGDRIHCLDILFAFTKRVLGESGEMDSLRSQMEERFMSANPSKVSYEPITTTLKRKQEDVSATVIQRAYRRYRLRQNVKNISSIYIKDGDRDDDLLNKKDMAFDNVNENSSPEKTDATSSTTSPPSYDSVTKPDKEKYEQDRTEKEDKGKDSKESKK

In the case of `COc1cc(Cl)ccc1N1CC(C)Oc2cc(S(=O)(=O)Nc3nccs3)ccc21` (racemic) [Example 103, 4-(4-Chloro-2-Methoxyphenyl)-2-Methyl-N-(Thiazol-2-Yl)-3,4-Dihydro-2H-Benzo[B][1,4]Oxazine-7-Sulfonamide], the pIC50 (Nav 1.7 [1]) was 7.40, the pIC50 (Nav 1.7 [2]) was 6.37 and the pIC50 (Nav 1.5) was 5.02.

`O=S(=O)(Nc1nccs1)c1ccc2c(c1)OCCN2c1ccc(Cl)cc1CC(O)CO` (stereo not drawn) [Example 210, 4-(4-Chloro-2-(2,3-Dihydroxypropyl)Phenyl)-N-(Thiazol-2-Yl)-3,4-Dihydro-2H-Benzo[B][1,4]Oxazine-7-Sulfonamide] was tested, and the pIC50 (Nav 1.7 [1]) was 7.90, the pIC50 (Nav 1.7 [2]) was 6.65 and the pIC50 (Nav 1.5) was 5.21.

Work on `N#Cc1cc(C(F)(F)F)ccc1N1CCOc2cc(S(=O)(=O)Nc3nccs3)c(Cl)cc21` [Example 212, 6-Chloro-4-(2-Cyano-4-(Trifluoromethyl)Phenyl)-N-(Thiazol-2-Yl)-3,4-Dihydro-2H-Benzo[B][1,4]Oxazine-7-Sulfonamide] yielded a pIC50 (Nav 1.7 [1]) of 7.67, a pIC50 (Nav 1.7 [2]) of 6.43 and a pIC50 (Nav 1.5) of 6.13.

`COc1ccc(F)cc1N1CCOc2cc(S(=O)(=O)Nc3nccs3)ccc21` [Example 151, 4-(5-Fluoro-2-methoxyphenyl)-N-(thiazol-2-yl)-3,4-dihydro-2H-benzo[b][1,4]oxazine-7-sulfonamide] was tested, and the pIC50 (Nav 1.7 [1]) was 7.87, the pIC50 (Nav 1.7 [2]) was 6.80 and the pIC50 (Nav 1.5) was < 5.00.

In the case of `O=S(=O)(Nc1nccs1)c1ccc2c(c1)OCCN2c1cccc2ccncc12` [Example 68, 4-(Isoquinolin-8-Yl)-N-(Thiazol-2-Yl)-3,4-Dihydro-2H-Benzo[B][1,4]Oxazine-7-Sulfonamide 2,2,2-Trifluoroacetate], the pIC50 (Nav 1.7 [1]) was 6.80, the pIC50 (Nav 1.7 [2]) was 5.76 and the pIC50 (Nav 1.5) was 5.32.

For `O=S(=O)(Nc1ncns1)c1ccc2c(c1)OCC(c1ccccc1)N2c1ccc(C(F)(F)F)cc1` (stereo not drawn) [Example 34, 3-Phenyl-N-(1,2,4-Thiadiazol-5-Yl)-4-(4-(Trifluoromethyl)Phenyl)-3,4-Dihydro-2H-Benzo[B][1,4]Oxazine-7-Sulfonamide], the pIC50 (Nav 1.7 [1]) was 5.61, the pIC50 (Nav 1.7 [2]) was 5.46 and the pIC50 (Nav 1.5) was < 5.00.

Work on `O=S(=O)(Nc1nccs1)c1ccc2c(c1)OCCN2c1ccc(C(F)(F)F)cc1-c1ccncc1` [Example 53, 4-(2-(Pyridin-4-Yl)-4-(Trifluoromethyl)Phenyl)-N-(Thiazol-2-Yl)-3,4-Dihydro-2H-Benzo[B][1,4]Oxazine-7-Sulfonamide 2,2,2-Trifluoroacetate] yielded a pIC50 (Nav 1.7 [1]) of 7.65, a pIC50 (Nav 1.7 [2]) of 6.69 and a pIC50 (Nav 1.5) of 6.26.

With `COc1cc(Cl)ccc1N1CCOc2cc(S(=O)(=O)Nc3nccs3)ccc21` [Example 186, 4-(4-Chloro-2-Methoxyphenyl)-N-(Thiazol-2-Yl)-3,4-Dihydro-2H-Benzo[B][1,4]Oxazine-7-Sulfonamide] the pIC50 (Nav 1.7 [1]) was 7.94, the pIC50 (Nav 1.7 [2]) was 7.17 and the pIC50 (Nav 1.5) was 5.11.

With `COCCOc1ccc(N2CCOc3cc(S(=O)(=O)Nc4ncns4)ccc32)cc1` [Example 39, 4-(4-(2-Methoxyethoxy)Phenyl)-N-(1,2,4-Thiadiazol-5-Yl)-3,4-Dihydro-2H-Benzo[B][1,4]Oxazine-7-Sulfonamide] the pIC50 (Nav 1.7 [1]) was 6.48, the pIC50 (Nav 1.7 [2]) was 5.04 and the pIC50 (Nav 1.5) was < 5.00.

For `N#Cc1ccc(N2CCOc3cc(S(=O)(=O)Nc4nccs4)ccc32)cc1OC(F)(F)F` [Example 167, 4-(4-cyano-3-(trifluoromethoxy)phenyl)-N-(thiazol-2-yl)-3,4-dihydro-2H-benzo[b][1,4]oxazine-7-sulfonamide], the pIC50 (Nav 1.7 [1]) was 6.19, the pIC50 (Nav 1.7 [2]) was 5.21 and the pIC50 (Nav 1.5) was < 5.00.

For `[N-]=[N+]=Nc1ccc(N2CCOc3cc(S(=O)(=O)Nc4nccs4)ccc32)c(Br)c1` [Example 64, 4-(4-Azido-2-Bromophenyl)-N-(Thiazol-2-Yl)-3,4-Dihydro-2H-Benzo[B][1,4]Oxazine-7-Sulfonamide 2,2,2-Trifluoroacetate], the pIC50 (Nav 1.7 [1]) was 6.38, the pIC50 (Nav 1.7 [2]) was 5.97 and the pIC50 (Nav 1.5) was < 5.00.

With `O=S(=O)(Nc1nccs1)c1ccc2c(c1)OCCN2c1ccccc1` [Example 165, 4-phenyl-N-(thiazol-2-yl)-3,4-dihydro-2H-benzo[b][1,4]oxazine-7-sulfonamide] the pIC50 (Nav 1.7 [1]) was 6.15, the pIC50 (Nav 1.7 [2]) was 5.43 and the pIC50 (Nav 1.5) was < 5.00.

`O=S(=O)(Nc1nccs1)c1ccc2c(c1)OCCN2c1ccc2c(c1)OC(F)(F)O2` [Example 127, 4-(2,2-Difluorobenzo[d][1,3]dioxol-5-yl)-N-(thiazol-2-yl)-3,4-dihydro-2H-benzo[b][1,4]oxazine-7-sulfonamide] was tested, and the pIC50 (Nav 1.7 [1]) was 6.32, the pIC50 (Nav 1.7 [2]) was 5.88 and the pIC50 (Nav 1.5) was < 5.00.

Compound `COc1cc(F)ccc1N1CCOc2cc(S(=O)(=O)Nc3nccs3)ccc21` [Example 150, 4-(4-Fluoro-2-methoxyphenyl)-N-(thiazol-2-yl)-3,4-dihydro-2H-benzo[b][1,4]oxazine-7-sulfonamide] has a pIC50 (Nav 1.7 [1]) of 7.77, a pIC50 (Nav 1.7 [2]) of 6.72 and a pIC50 (Nav 1.5) of 5.25.

With `Cc1cc(C#N)cc(N2CCOc3cc(S(=O)(=O)Nc4nccs4)ccc32)c1` [Example 124, 4-(3-Cyano-5-methylphenyl)-N-(thiazol-2-yl)-3,4-dihydro-2H-benzo[b][1,4]oxazine-7-sulfonamide] the pIC50 (Nav 1.7 [1]) was 6.80, the pIC50 (Nav 1.7 [2]) was 5.57 and the pIC50 (Nav 1.5) was 5.63.

For `O=S(=O)(Nc1ncns1)c1ccc2c(c1)OCCN2c1ccc(C(F)(F)F)cc1Cl` [Example 2, 4-(2-Chloro-4-(Trifluoromethyl)Phenyl)-N-(1,2,4-Thiadiazol-5-Yl)-3,4-Dihydro-2H-Benzo[B][1,4]Oxazine-7-Sulfonamide], the pIC50 (Nav 1.7 [1]) was 8.11, the pIC50 (Nav 1.7 [2]) was 7.41 and the pIC50 (Nav 1.5) was < 5.00.

Compound `N#Cc1ccc(OC(F)(F)F)cc1N1CCOc2cc(S(=O)(=O)Nc3nccs3)ccc21` [Example 128, 4-(2-Cyano-5-(trifluoromethoxy)phenyl)-N-(thiazol-2-yl)-3,4-dihydro-2H-benzo[b][1,4]oxazine-7-sulfonamide] has a pIC50 (Nav 1.7 [1]) of 7.16, a pIC50 (Nav 1.7 [2]) of 6.04 and a pIC50 (Nav 1.5) of 5.43.

With `COc1ccccc1N1CCOc2cc(S(=O)(=O)Nc3nccs3)ccc21` [Example 205, 4-(2-methoxyphenyl)-N-(thiazol-2-yl)-3,4-dihydro-2H-benzo[b][1,4]oxazine-7-sulfonamide] the pIC50 (Nav 1.7 [1]) was 7.42, the pIC50 (Nav 1.7 [2]) was 6.42 and the pIC50 (Nav 1.5) was < 5.00.

In the case of `O=S(=O)(Nc1ccc(F)cn1)c1ccc2c(c1)OCCN2c1ccc(C(F)(F)F)cc1Cl` [Example 17, 4-(2-Chloro-4-(Trifluoromethyl)Phenyl)-N-(5-Fluoropyridin-2-Yl)-3,4-Dihydro-2H-Benzo[B][1,4]Oxazine-7-Sulfonamide], the pIC50 (Nav 1.7 [1]) was 5.44, the inhibition at 4.9 µM (Nav 1.7 [2]; HEK293, values marked *, 4.9 μM, read-out: Nav 1.7 PX percent inhibition at 4.9 μM) was 24.1% and the pIC50 (Nav 1.5) was < 5.00.

For `C[C@H]1COc2cc(S(=O)(=O)Nc3nccs3)ccc2N1c1ccc(C(F)(F)F)cc1C#N` (single isomer, unassigned) [Example 98], the pIC50 (Nav 1.7 [1]) was 6.00, the pIC50 (Nav 1.7 [2]) was 5.46 and the pIC50 (Nav 1.5) was < 5.00.

With `O=S(=O)(Nc1cscn1)c1ccc2c(c1)OCCN2c1ccc(C(F)(F)F)cc1C1=CCNCC1` [Example 63, 4-(2-(1,2,3,6-Tetrahydropyridin-4-Yl)-4-(Trifluoromethyl)Phenyl)-N-(Thiazol-4-Yl)-3,4-Dihydro-2H-Benzo[B][1,4]Oxazine-7-Sulfonamide] the pIC50 (Nav 1.7 [1]) was 7.57, the pIC50 (Nav 1.7 [2]) was 6.84 and the pIC50 (Nav 1.5) was 5.57.

`COc1ncc(Cl)cc1N1CCOc2cc(S(=O)(=O)Nc3nccs3)ccc21` [Example 111, 4-(5-Chloro-2-methoxypyridin-3-yl)-N-(thiazol-2-yl)-3,4-dihydro-2H-benzo[b][1,4]oxazine-7-sulfonamide] was tested, and the pIC50 (Nav 1.7 [1]) was 7.47, the pIC50 (Nav 1.7 [2]) was 5.98 and the pIC50 (Nav 1.5) was 5.52.

`COc1cc(C#N)ccc1N1CCOc2cc(S(=O)(=O)Nc3nccs3)c(F)cc21` [Example 217, 4-(4-Cyano-2-Methoxyphenyl)-6-Fluoro-N-(Thiazol-2-Yl)-3,4-Dihydro-2H-Benzo[B][1,4]Oxazine-7-Sulfonamide] showed a pIC50 (Nav 1.7 [1]) of 8.10, a pIC50 (Nav 1.7 [2]) of 6.68 and a pIC50 (Nav 1.5) of 5.88.

`N#Cc1ccc(C(F)(F)F)cc1N1CCOc2cc(S(=O)(=O)Nc3nccs3)ccc21` [Example 184, 4-(2-Cyano-5-(Trifluoromethyl)Phenyl)-N-(Thiazol-2-Yl)-3,4-Dihydro-2H-Benzo[B][1,4]Oxazine-7-Sulfonamide] gave a pIC50 (Nav 1.7 [1]) of 6.73, a pIC50 (Nav 1.7 [2]) of 6.41 and a pIC50 (Nav 1.5) of 5.50.

Work on `N#Cc1cc(-c2ccc(F)cc2)ccc1N1CCOc2cc(S(=O)(=O)Nc3nccs3)ccc21` [Example 199, 4-(3-Cyano-4′-Fluoro-[1,1′-Biphenyl]-4-Yl)-N-(Thiazol-2-Yl)-3,4-Dihydro-2H-Benzo[B][1,4]Oxazine-7-Sulfonamide] yielded a pIC50 (Nav 1.7 [1]) of 6.33, a pIC50 (Nav 1.7 [2]) of 6.41 and a pIC50 (Nav 1.5) of 5.91.

`COc1ccc(C)nc1N1CCOc2cc(S(=O)(=O)Nc3nccs3)ccc21` [Example 109, 4-(3-methoxy-6-methyl-2-pyridinyl)-N-1,3-thiazol-2-yl-3,4-dihydro-2H-1,4-benzoxazine-7-sulfonamide] was tested, and the pIC50 (Nav 1.7 [1]) was 6.60, the pIC50 (Nav 1.7 [2]) was 5.70 and the pIC50 (Nav 1.5) was < 5.00.

`C[C@H]1CN(c2ccc(C(F)(F)F)cc2C#N)c2ccc(S(=O)(=O)Nc3nccs3)cc2O1` (single isomer, unassigned) [Example 94] was tested, and the pIC50 (Nav 1.7 [1]) was 8.07, the pIC50 (Nav 1.7 [2]) was 6.83 and the pIC50 (Nav 1.5) was 6.14.

`O=S(=O)(Nc1ncco1)c1ccc2c(c1)OCCN2c1ccc(C(F)(F)F)cc1Cl` [Example 24, 4-(2-Chloro-4-(Trifluoromethyl)Phenyl)-N-(Oxazol-2-Yl)-3,4-Dihydro-2H-Benzo[B][1,4]Oxazine-7-Sulfonamide] was tested, and the pIC50 (Nav 1.7 [1]) was 6.08, the pIC50 (Nav 1.7 [2]) was 5.37 and the pIC50 (Nav 1.5) was < 5.00.

With `Cc1cc(Cl)ccc1N1CCOc2cc(S(=O)(=O)Nc3nccs3)ccc21` [Example 195, 4-(4-Chloro-2-Methylphenyl)-N-(Thiazol-2-Yl)-3,4-Dihydro-2H-Benzo[B][1,4]Oxazine-7-Sulfonamide] the pIC50 (Nav 1.7 [1]) was 6.63, the pIC50 (Nav 1.7 [2]) was 5.96 and the pIC50 (Nav 1.5) was < 5.00.
